# From US11124554B2, “Modified ligand-gated ion channels and methods of use” (Howard Hughes Medical Institute, priority 2016, dated 2021)
# “Also recorded” adds a separate entry of the source. Where two headings read alike, the source gives them in different places.
# How the values were obtained:
# α7^Y115F,G175K-GlyR = biological target: T1, α7^Y115F,G175K-GlyR (Homo sapiens, UniProt P36544, G175K/Y115F); assay: Agonist potency at chimeric channel; assay type: cell-based; details: relative to α7^Y115F-GlyR
# T1 construct: expressed in transfected cells
# α7^Y115F-GlyR G175F = biological target: T2, α7^Y115F-GlyR G175F (Homo sapiens, UniProt P36544, G175F/Y115F); assay: Agonist potency at chimeric channel (Table 8); assay type: cell-based; details: relative to α7^Y115F-GlyR
# T2 construct: expressed in transfected cells
# α7^Y115F-GlyR G175R = biological target: T3, α7^Y115F-GlyR G175R (Homo sapiens, UniProt P36544, G175R/Y115F); assay: Agonist potency at chimeric channel (Table 8); assay type: cell-based; details: relative to α7^Y115F-GlyR
# T3 construct: expressed in transfected cells
# α7^Y115F-GlyR G175S = biological target: T4, α7^Y115F-GlyR G175S (Homo sapiens, UniProt P36544, G175S/Y115F); assay: Agonist potency at chimeric channel (Table 8); assay type: cell-based; details: relative to α7^Y115F-GlyR
# T4 construct: expressed in transfected cells
# α7^Y115F-GlyR G175V = biological target: T5, α7^Y115F-GlyR G175V (Homo sapiens, UniProt P36544, G175V/Y115F); assay: Agonist potency at chimeric channel (Table 8); assay type: cell-based; details: relative to α7^Y115F-GlyR
# T5 construct: expressed in transfected cells
# α7^L131G-5HT3 HC = assay: Agonist potency at chimeric channel (Table 9); assay type: cell-based, human
# α7^Q79S,L131G-GlyR = biological target: T6, α7^Q79S,L131G-GlyR (Homo sapiens, UniProt P36544, L131G/Q79S); assay: Agonist potency at chimeric channel (Table 9); assay type: cell-based
# T6 construct: expressed in transfected cells
# α7^Q79S,L131G,Q139L-GlyR = biological target: T7, α7^Q79S,L131G,Q139L-GlyR (Homo sapiens, UniProt P36544, L131G/Q139L/Q79S); assay: cell-based; assay type: cell-based
# T7 construct: expressed in transfected cells
# [1] = system: α7GlyR chimeric channels with G175K and A298G mutations; assay type: cell-based, human; details: read-out: Agonist potency
# [2] = system: mouse cortical neurons transduced with α7^Q79G-GlyR^A298G; assay: Action potential firing of transduced cortical neurons; assay type: cell-based; details: 30 nM; 40 pA current injection; restored after washout
# Description: After washout (WASH) of tropisetron, neuron firing is restored.
# (§1) AAVs or DNA plasmids containing nucleic acids encoding a α7^Q79G-GlyR^A298G or α7Q79G,Y115F,G175K-GlyR chimeric LGICs were transduced into mouse cortical neurons. […] Neuron activity was silenced by application of low concentration of agonist (FIG. 7 and FIG. 8C).
# [3] = system: mouse cortical neurons transduced with α7^Q79G,Y115F,G175K-GlyR; assay: as above; assay type: cell-based; details: 100 nM; current injection; restored after washout
# Description: FIGS. 8A-8C show activity of agonists on chimeric LGICs with a G175K mutation. FIG. 8A) A graph of EC50s for Q79G G175K LBD mutants against known agonists normalized to the unmodified α7-GlyR chimeric channel (log scale). […] Unmod.: unmodified α7-GlyR chimeric LGIC. FIG. 8C) Action potentials of cortical neurons from a mouse brain transduced with α7^Q79G,Y115F,G175K-GlyR chimeric LGIC. […] After washout (WASH) of tropisetron, neuron firing is restored
# as §1
# α7^L131A-GlyR = biological target: T8, α7^L131A-GlyR (Homo sapiens, UniProt P36544, L131A); assay: Agonist potency at chimeric channel (Table 9); assay type: cell-based
# T8 construct: expressed in transfected cells
# α7^L131G,Q139L-GlyR = biological target: T9, α7^L131G,Q139L-GlyR (Homo sapiens, UniProt P36544, L131G/Q139L); assay: Agonist potency at chimeric channel (Table 9); assay type: cell-based
# T9 construct: expressed in transfected cells
# α7^L131G,Y217F-GlyR = biological target: T10, α7^L131G,Y217F-GlyR (Homo sapiens, UniProt P36544, L131G/Y217F); assay: Agonist potency at chimeric channel (Table 9); assay type: cell-based
# T10 construct: expressed in transfected cells
# [4] = biological target: T11, α7^L131G,Q139L,Y217F-GlyR (Homo sapiens, UniProt P36544, L131G/Q139L/Y217F); assay: cell-based; assay type: cell-based
# T11 construct: expressed in transfected cells
# [5] = biological target: T12, α7^L131G,Q139L,Y217F-5HT3 HC (Homo sapiens, UniProt P36544, L131G/M226I/Q139L/T225I/Y217F); assay: Agonist potency at chimeric channel (Table 9); assay type: cell-based; details: α7^L131G,Q139L,Y217F-5HT3 HC
# T12 construct: expressed in transfected cells
# [6] = system: mouse cortical neurons transfected with α7^L131G,Q139L,Y217F-GlyR; assay: Action potential firing of transfected cortical neurons; assay type: cell-based; details: 10 nM; even with >6-fold greater injected current
# Description: FIGS. 9A-9D show activity of agonists on chimeric LGICs with a L131G mutation. FIG. 9A) A graph of EC50s for L131 LBD mutants against known agonists normalized to the unmodified α7-GlyR chimeric channel (log scale). […] Unmod.: unmodified α7-GlyR chimeric LGIC. FIG. 9D) Action potentials of a cortical neuron from a mouse brain transduced with α7^L131G,Q139L,Y217F-GlyR chimeric LGIC. […] After washout (WASH) of tropisetron, neuron firing is restored.
# DNA plasmids containing nucleic acids encoding a α7L131G,Q139L,Y217F-GlyR chimeric LGICs were transfected into mouse cortical neurons. […] Neuron activity was silenced by application of low concentration of agonist (FIG. 9C).
# T7 sequence (P36544 with tags, fused parts or gaps Q79S/L131G/Q139L): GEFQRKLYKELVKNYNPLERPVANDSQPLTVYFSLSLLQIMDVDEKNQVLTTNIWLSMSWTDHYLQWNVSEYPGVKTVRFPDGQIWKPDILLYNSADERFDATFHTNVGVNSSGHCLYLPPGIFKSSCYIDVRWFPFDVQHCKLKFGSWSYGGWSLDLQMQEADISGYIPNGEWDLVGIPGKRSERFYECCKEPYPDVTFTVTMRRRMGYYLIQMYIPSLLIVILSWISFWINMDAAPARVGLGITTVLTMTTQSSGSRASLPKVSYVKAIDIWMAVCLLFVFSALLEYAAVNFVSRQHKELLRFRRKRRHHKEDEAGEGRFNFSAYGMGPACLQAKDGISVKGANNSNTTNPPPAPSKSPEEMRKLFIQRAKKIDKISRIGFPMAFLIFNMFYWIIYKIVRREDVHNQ
# T6 sequence (P36544 with tags, fused parts or gaps Q79S/L131G): as the sequence (P36544 with tags, fused parts or gaps Q79S/L131G/Q139L) above, with L117Q counted along it
# T4 sequence (P36544 with tags, fused parts or gaps Y115F/G175S): as the sequence (P36544 with tags, fused parts or gaps Q79S/L131G/Q139L) above, with S57Q, Y93F, G109L, L117Q, G153S counted along it
# T5 sequence (P36544 with tags, fused parts or gaps Y115F/G175V): as the sequence (P36544 with tags, fused parts or gaps Q79S/L131G/Q139L) above, with S57Q, Y93F, G109L, L117Q, G153V counted along it
# T2 sequence (P36544 with tags, fused parts or gaps Y115F/G175F): as the sequence (P36544 with tags, fused parts or gaps Q79S/L131G/Q139L) above, with S57Q, Y93F, G109L, L117Q, G153F counted along it
# T10 sequence (P36544 with tags, fused parts or gaps L131G/Y217F): as the sequence (P36544 with tags, fused parts or gaps Q79S/L131G/Q139L) above, with S57Q, L117Q, Y195F counted along it
# T9 sequence (P36544 with tags, fused parts or gaps L131G/Q139L): as the sequence (P36544 with tags, fused parts or gaps Q79S/L131G/Q139L) above, with S57Q counted along it
# T1 sequence (P36544 with tags, fused parts or gaps Y115F/G175K): as the sequence (P36544 with tags, fused parts or gaps Q79S/L131G/Q139L) above, with S57Q, Y93F, G109L, L117Q, G153K counted along it
# T3 sequence (P36544 with tags, fused parts or gaps Y115F/G175R): as the sequence (P36544 with tags, fused parts or gaps Q79S/L131G/Q139L) above, with S57Q, Y93F, G109L, L117Q, G153R counted along it
# T11 sequence (P36544 with tags, fused parts or gaps L131G/Q139L/Y217F): as the sequence (P36544 with tags, fused parts or gaps Q79S/L131G/Q139L) above, with S57Q, Y195F counted along it
# T12 sequence (P36544 with tags, fused parts or gaps L131G/Q139L/Y217F/T225I/M226I limits assumed): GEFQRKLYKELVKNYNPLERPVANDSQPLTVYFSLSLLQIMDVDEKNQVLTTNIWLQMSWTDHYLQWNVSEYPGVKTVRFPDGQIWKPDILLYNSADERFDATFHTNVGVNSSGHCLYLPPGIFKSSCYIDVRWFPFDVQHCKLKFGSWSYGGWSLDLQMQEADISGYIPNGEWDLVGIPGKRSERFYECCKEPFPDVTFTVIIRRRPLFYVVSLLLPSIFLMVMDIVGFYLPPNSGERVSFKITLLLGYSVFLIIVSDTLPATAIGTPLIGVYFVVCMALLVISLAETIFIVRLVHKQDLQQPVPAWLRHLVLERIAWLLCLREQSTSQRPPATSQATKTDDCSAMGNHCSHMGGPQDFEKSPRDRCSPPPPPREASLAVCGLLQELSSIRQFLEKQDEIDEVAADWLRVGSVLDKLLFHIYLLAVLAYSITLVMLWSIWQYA
# T8 sequence (P36544 with tags, fused parts or gaps L131A): as the sequence (P36544 with tags, fused parts or gaps Q79S/L131G/Q139L) above, with S57Q, G109A, L117Q counted along it
structure (smiles),measurement,setting,value
CN1[C@@H]2CC[C@H]1C[C@@H](OC(=O)c1c[nH]c3ccccc13)C2 [Tropisetron],potency enhancement at α7^Y115F-GlyR by additional mutation G175K,"α7^Y115F,G175K-GlyR",5.6 fold
same,potency enhancement at α7^Y115F-GlyR by additional mutation G175F,α7^Y115F-GlyR G175F,2 fold
same,potency enhancement at α7^Y115F-GlyR by additional mutation G175R,α7^Y115F-GlyR G175R,5.8 fold
same,potency enhancement at α7^Y115F-GlyR by additional mutation G175S,α7^Y115F-GlyR G175S,9.3 fold
same,potency enhancement at α7^Y115F-GlyR by additional mutation G175V,α7^Y115F-GlyR G175V,16.7 fold
same,potency enhancement,α7^L131G-5HT3 HC; α7^L131G-5HT3 HC,2.3 fold
same,improved potency over α7-GlyR,"α7^Q79S,L131G-GlyR; α7^Q79S,L131G-GlyR",15 fold
same,improved potency over α7-GlyR,"α7^Q79S,L131G,Q139L-GlyR; α7^Q79S,L131G,Q139L-GlyR",3 fold
same,EC50,[1]; α7GlyR Q79G A298G G175K Y115F,2.8 nM
same,EC50,[1]; α7GlyR Q79G G175K A298G,0.6 nM
same,suppression of action potential firing,[2],silenced; also recorded: potently suppressed
same,suppression of action potential firing,[3],silenced; also recorded: potently suppressed
c1cnc2cc3c(cc2n1)[C@@H]1CNC[C@H]3C1 [Varenicline],potency enhancement,α7^L131A-GlyR,8 fold
same,potency enhancement,α7^L131G-5HT3 HC,16 fold
same,potency enhancement over α7-GlyR,"α7^L131G,Q139L-GlyR",21 fold
same,potency enhancement over α7-GlyR,"α7^L131G,Y217F-GlyR",21 fold
same,improved potency over α7-GlyR,"α7^Q79S,L131G-GlyR",89 fold
same,improvement in potency over α7-GlyR,[4],387 fold
same,improved potency over α7-GlyR,"α7^Q79S,L131G,Q139L-GlyR",31 fold
same,improved potency over a7-5HT3,[5],131 fold
same,suppression of action potential firing,[6],silenced; also recorded: potently suppressed
